# Reference: patent US11046691B1 (IDEAYA BIOSCIENCES, INC., priority 2018, dated 2021)
# Biological target: hMAT2A (Homo sapiens (Human), UniProt P31153)
# Test: Phosphate Sensor Fluorescence Assay (MAT2A enzyme inhibition)
# Format: biochemical
# Conditions: L-methionine 500 uM, ATP 500 uM, class symbols
# Experimental: The ability of the compound of present disclosure to inhibit MAT2A enzyme was determined using the Malachite Green or Phosphate Sensor Fluorescence Assay described below.
# B. Phosphate Sensor Fluorescence Assay
# MAT2A enzyme is incubated with a test compound in DMSO or DMSO and its substrates (L-methionine and ATP) in a microtiter plate. The enzymatic reaction is stopped by the addition of Working Phosphate Sensor Mixture. The plate is analyzed for fluorescence at 450 nm.
# Assay Buffer: 50 mM Tris, pH 7.5/50 mM KCl/10 mM MgCl2/0.01% Brij-35/1 mM DTT/0.1% BGG/40 nM PNP/6 uM 7-MEG
# L-methionine: 500 uM before the addition of Working Phosphate Sensor Mixture
# ATP: 500 uM before the addition of Working Phosphate Sensor Mixture
# Test compounds or DMSO were added to the appropriate well suing D300e digital dispenser. 5 μl/well of Assay Buffer was added to the wells corresponding to the negative control and 5 μl/well of MAT2A was added to all the wells except for those corresponding to the negative control. After incubating the plate at room temperature for 15 minutes, 5 μl/well of the 1 mM L-methionine/1 mM ATP mixture was added to all wells. The plate was centrifuged at 1000 rpm for 1 minute and then incubated at room temperature for 1 hour. 5 μl of the Working Phosphate Sensor Mixture was added to all wells and the plate was centrifuged at 1000 rpm for 1 minute. The plate was read for fluorescence at 450 nm after exciting at 430 nm.
# Percent inhibition was calculated in Chemical and Biological Information System (CBIS), (ChemInnovation Software Inc.). Curves were fitted by CBIS as % inhibition vs. log [compound concentration] using a 4-parameter inhibition model. Fit=(A+((B−A)/(1+((C/x)^D)))) Res=(y−fit)
# Chain of hMAT2A (P31153 whole entry): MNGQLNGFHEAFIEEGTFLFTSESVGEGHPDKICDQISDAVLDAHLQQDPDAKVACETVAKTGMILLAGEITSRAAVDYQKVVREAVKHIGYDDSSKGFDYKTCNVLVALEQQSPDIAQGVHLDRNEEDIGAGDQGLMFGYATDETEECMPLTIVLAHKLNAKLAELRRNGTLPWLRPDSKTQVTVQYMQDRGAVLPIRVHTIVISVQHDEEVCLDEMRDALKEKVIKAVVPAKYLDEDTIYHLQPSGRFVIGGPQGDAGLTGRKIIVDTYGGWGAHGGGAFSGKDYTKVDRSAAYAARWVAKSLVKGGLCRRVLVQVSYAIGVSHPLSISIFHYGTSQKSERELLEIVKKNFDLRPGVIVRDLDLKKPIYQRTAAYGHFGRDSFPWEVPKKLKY
row,SMILES,IC50
1,"N#Cc1cccc(-n2c(=O)nc(N3CC(O)C3)c3ccc(C(F)(F)F)nc32)c1 [Example 162, 3-(4-(3-hydroxyazetidin-1-yl)-2-oxo-7-(trifluoromethyl)pyrido[2,3-d]pyrimidin-1(2H)-yl)benzonitrile]",< 200 nM
2,Cc1ccccc1-n1c(=O)nc(N2CC(O)C2)c2ccc(C(F)(F)F)nc21 [Example 165],< 200 nM
3,"Nc1nc(=O)n(-c2ccccc2Cl)c2nc(C(F)(F)F)ccc12 [Example 167, 4-amino-1-(2-chlorophenyl)-7-(trifluoro-methyl)pyrido[2,3-d]pyrimidin-2(1H)-one]",< 200 nM
4,"N#Cc1cccc(-n2c(=O)nc(N)c3ccc(C(F)(F)F)nc32)c1 [Example 168, 3-(4-amino-2-oxo-7-(trifluoromethyl)-pyrido[2,3-d]pyrimidin-1(2H)-yl)-benzonitrile]",< 200 nM
5,"Cc1ccccc1-n1c(=O)nc(N)c2ccc(C(F)(F)F)nc21 [Example 169, 4-amino-1-(2-methylphenyl)-7-(trifluoromethyl)pyrido[2,3-d]pyrimidin-2(1H)-one]",< 200 nM
6,"O=c1nc(N2CC[C@@H](O)C2)c2ccc(C(F)(F)F)nc2n1-c1ccccc1 [Example 170, (R)-4-(3-hydroxypyrrolidin-1-yl)-1-phenyl-7-(trifluoromethyl)pyrido[2,3-d]-pyrimidin-2(1H)-one]",< 200 nM
7,"O=c1nc(N2CC(O)C2)c2ccc(C(F)(F)F)nc2n1-c1ccccc1 [Example 171, 4-(3-hydroxyazetidin-1-yl)-1-phenyl-7-(trifluoromethyl)pyrido[2,3-d]pyrimidin-2(1H)-one]",< 200 nM
8,"CNc1nc(=O)n(-c2cccc(C#N)c2C)c2cc(Cl)ccc12 [Example 173, 3-[7-chloro-4-(methylamino)-2-oxo-hydroquinazolinyl]-2-methylbenzene-carbonitrile]",< 200 nM
9,"O=c1nc(N2CCCC2)c2ccc(C(F)(F)F)nc2n1-c1ccccc1Cl [Example 176, 1-(2-chlorophenyl)-4-(pyrrolictin-1-yl)-7-(trifluoromethyl)pyrido[2,3-d]pyrimidin-2(1H)-one]",< 200 nM
10,"CNc1nc(=O)n(-c2ccccc2Cl)c2nc(C(F)(F)F)ccc12 [Example 178, 1-(2-chlorophenyl)-4-(methylamino)-7-(trifluoromethyl)pyrido[2,3-d]pyrimidin-2(1H)-one]",< 200 nM
11,"CNc1nc(=O)n(-c2cccc(C#N)c2)c2nc(C(F)(F)F)ccc12 [Example 179, 3-[4-(methylamino)-2-oxo-7-(trifluoro-methyl)pyrido[2,3-d]pyrimidin-1(2H)-yl)benzonitrile]",< 200 nM
12,"CNc1nc(=O)n(-c2ccccc2C)c2nc(C(F)(F)F)ccc12 [Example 180, 4-(methylamino)-1-(2-methylphenyl)-7-(trifluoromethyl)pyrido[2,3-d]pyrimidin-2(1H)-one]",< 200 nM
13,"O=c1nc(N2CC[C@H](O)C2)c2ccc(C(F)(F)F)nc2n1-c1ccccc1Cl [Example 181, (S)-1-(2-chlorophenyl)-4-(3-hydroxy-pyrrolidin-1-yl)-7-(trifluoromethyl)-pyrido[2,3-d]pyrimidin-2(1H)-one]",< 200 nM
14,"N#Cc1cccc(-n2c(=O)nc(N3CC[C@H](O)C3)c3ccc(C(F)(F)F)nc32)c1 [Example 182, (S)-3-(4-(3-hydroxypyrrolidin-1-yl)-2-oxo-7-(trifluoromethyl)pyrido[2,3-d]pyrimidin-1(2H)-yl)benzonitrile]",< 200 nM
15,"Cc1ccccc1-n1c(=O)nc(N2CC[C@@H](O)C2)c2ccc(C(F)(F)F)nc21 [Example 183, (R)-4-(3-hydroxypyrrolidin-1-yl)-1-(o-tolyl)-7-(trifluoromethyl)pyrido[2,3-d]-pyrimidin-2(1H)-one]",< 200 nM
16,"CNc1nc(=O)n(-c2ccccc2)c2nc(C(F)(F)F)ccc12 [Example 184, 4-(methylamino)-1-phenyl-7-(trifluoromethyl)pyrido[2,3-d]-pyrimidin-2(1H)-one]",< 200 nM
17,CNc1nc(=O)n(-c2nccn2C)c2cc(Cl)ccc12 [Example 188],200 to 500 nM

# Second part, the compound after the results:
row,IC50,SMILES
1,< 200 nM,"Nc1nc(=O)n(-c2ccccc2)c2cc(Br)ccc12 [Example 163, 4-amino-7-bromo-1-phenylhydro-quinazolin-2-one]"
2,< 200 nM,O=c1nc(N2CC(O)C2)c2ccc(C(F)(F)F)cc2n1-c1ccccc1 [Example 164]
3,200 to 500 nM,"O=c1[nH]c(=O)n(-c2ccccc2)c2cc(C(F)F)ccc12 [Example 166, 7-(difluoromethyl)-1-phenyl-1,3-dihydroquinazoline-2,4-dione]"
4,< 200 nM,"O=c1nc(N2CC[C@H]2CO)c2ccc(Cl)cc2n1-c1ccccc1 [Example 172, (S)-7-chloro-4-(2-(hydroxymethyl)-azetidin-1-yl)-1-phenylquinazolin-2(1H)-one]"
5,< 200 nM,CNC(=O)c1cccc(-n2c(=O)nc(NC)c3ccc(Cl)cc32)c1 [Example 175]
6,< 200 nM,"CNc1nc(=O)n(-c2ccccc2)c2cc(Cl)cc(OCCO)c12 [Example 185, 7-chloro-5-(2-hydroxyethoxy)-4-(methylamino)-1-phenylhydro-quinazolin-2-one]"
7,< 200 nM,"O=c1nc(N2CCC2CO)c2ccc(Cl)cc2n1-c1ccccc1 (stereo not shown) [Example 186, 7-chloro-4-[2-(hydroxymethyl)azetidin-1-yl]-1-phenylhydroquinazolin-2-one]"
8,200 to 500 nM,"O=c1nc(N2CC[C@@H]2CO)c2ccc(Cl)cc2n1-c1ccccc1 [Example 187, (R)-7-chloro-4-(2-(hydroxymethyl)-azetidin-1-yl)-1-phenylquinazolin-2(1H)-one]"
9,< 200 nM,"CO[C@@H]1CCN(c2nc(=O)n(-c3ccccc3)c3cc(Cl)ccc23)C1 [Example 189, (R)-7-chloro-4-(3-methoxypyrrolidin-1-yl)-1-phenylquinazolin-2(1H)-one]"
10,1000 to 10000 nM,"CNc1nc(=O)n(-c2ccccc2)c2cc(Cl)c(C#N)cc12 [Example 190, 7-chloro-4-(methylamino)-2-oxo-1-phenylhydroquinazoline-6-carbonitrile]"
11,< 200 nM,"CO[C@H]1CCN(c2nc(=O)n(-c3ccccc3)c3cc(Cl)ccc23)C1 [Example 196, (S)-7-chloro-4-(3-methoxypyrrolidin-1-yl)-1-phenylquinazolin-2(1H)-one]"
12,< 200 nM,"CN(Cc1ccccc1)c1nc(=O)n(-c2ccccc2)c2cc(Cl)ccc12 [Example 197, 7-chloro-4-[methylbenzylamino]-1-phenylhydroquinazolin-2-one]"
13,< 200 nM,"COC(=O)C1CN(c2nc(=O)n(-c3ccccc3)c3cc(Cl)ccc23)C1 [Example 199, methyl 1-(7-chloro-2-oxo-1-phenyl-1,2-dihydroquinazolin-4-yl)azetidine-3-carboxylate]"

# Same assay, conditions: L-methionine 500 uM, ATP 500 uM, numeric bound
row,IC50,SMILES
1,> 10000 nM,"O=c1ncc2ccc(Cl)cc2n1-c1ccccc1 [Example 191, 7-chloro-1-phenylhydroquinazolin-2-one]"
2,> 10000 nM,"CNc1nc(=O)n(-c2ccccc2)c2cc(C)cnc12 [Example 192, 7-methyl-4-(methylamino)-1-phenyl-pyrido[3,2-d]pyrimidin-2(1H)-one]"
3,> 10000 nM,"Cc1cnc2c(=O)[nH]c(=O)n(-c3ccccc3)c2c1 [Example 193, 7-methyl-1-phenylpyrido[3,2-d]-pyrimidine-2,4(1H,3H)-dione]"
4,> 10000 nM,"O=C(O)[C@@H]1CCCN1c1nc(=O)n(-c2ccccc2)c2cc(Cl)ccc12 [Example 195, (2S)-1-(7-chloro-2-oxo-1-phenylhydro-quinazolin-4-yl)pyrrolidine-2-carboxylic acid]"
